Marks after values point to notes of the source that are not given here.
What was measured:
Plasmopara viticola = assay: Test D: grape downy mildew, spray after inoculation of grape seedlings; format: in vivo
Excerpt: Upon removal, disease ratings were made. […] A dash (-) indicates no test results.

Phytophthora infestans = assay: whole plant or invertebrate; format: in vivo
fusarium graminearium = assay: Test I: wheat head scab, preventive spray on wheat seedlings
Experimental: (the causal agent of wheat head scab) and incubated in a saturated atmosphere at 20° C. for 72 h, and then moved to a growth chamber at 22° C. for 5 days, after which disease ratings were made.

[1] = system: Puccinia recondita f. sp. tritici; assay: Test K: wheat leaf rust, preventive spray on wheat seedlings
Botrytis cinerea = assay: Test E: tomato botrytis, preventive spray on tomato seedlings
Septoria nodorum = assay: Test H: wheat glum blotch, preventive spray on wheat seedlings
Experimental: (the causal agent of wheat glum blotch) and incubated in a saturated atmosphere at 20° C. for 48 h, and then moved to a growth chamber at 22° C. for 5 days, after which disease ratings were made.

[2] = system: Erysiphe graminis f. sp. tritici; assay: Test L: wheat powdery mildew, preventive spray on wheat seedlings
Pythium aphanidermatum = assay: Test A: bluegrass pythium blight, preventive spray on bluegrass seedlings; conditions: for Test A disease control rating: 200 ppm
Rhizoctonia oryzae = assay: Test G: turf brown patch, preventive spray on creeping bent grass seedlings
Experimental: (the causal agent of turf brown patch) and incubated in a saturated atmosphere at 27° C. for 24 h, and then moved to a growth chamber at 27° C. for 5 days, after which disease ratings were made.

[3] = system: Colletotrichum orbiculare; assay: Test B: cucumber Colletotrichum anthracnose, preventive spray on cucumber seedlings
Septoria tritici = assay: Test J: wheat leaf blotch, preventive spray on wheat seedlings; format: in vivo; conditions: 40 ppm (marked *); 100 = 100% disease control, 0 = no control
Excerpt: A dash (-) indicates no test results.

[4] = 200 ppm, 100 = 100% disease control, 0 = no control relative to controls
[5] = 100 = 100% disease control, 0 = no control relative to controls
[6] = 40 ppm (marked *), 100 = 100% disease control, 0 = no control

Row | Structure (SMILES) | Test D disease control rating (Plasmopara viticola; [4]) | Test F disease control rating (Phytophthora infestans; [4]) | Test I disease control rating (fusarium graminearium; [4]) | Test A disease control rating (Pythium aphanidermatum; [5]) | Test J disease control rating (Septoria tritici) | Test E disease control rating (Botrytis cinerea; [6]) | Test H disease control rating (Septoria nodorum; [6]) | Test L disease control rating [2, 6] | Test G disease control rating (Rhizoctonia oryzae; [6]) | Test B disease control rating [3, 6] | Test D disease control rating (Plasmopara viticola; [6]) | Test F disease control rating (Phytophthora infestans; [6]) | Test I disease control rating (fusarium graminearium; [6]) | also measured
1 | O=c1c(-n2cccn2)nc(Cl)c(-c2c(F)cc(F)cc2F)n1C1CCCCC1 [compound 418] | 47% | 0% | 0% | 0% | – | – | – | – | – | – | – | – | – | Test K disease control rating [1, 4]: 99%; Test E disease control rating (Botrytis cinerea; [4]): 99%; Test H disease control rating (Septoria nodorum; [4]): 100%; Test L disease control rating [2, 4]: 100%; Test G disease control rating (Rhizoctonia oryzae; [4]): 99%; Test B disease control rating [3, 4]: 99%
2 | CCn1c(-c2ccc(F)cc2Cl)c(Cl)nc(C(N)=O)c1=O [compound 412] | 16% | 9% | 0% | – | 0* % | 29* % | 0* % | 0* % | 0* % | 0* % | – | – | – | –
3 | O=c1c(-n2cccn2)nc(Cl)c(-c2c(F)cc(F)cc2F)n1-c1cc(F)c(F)c(F)c1 [compound 410] | – | – | – | – | 98* % | 99* % | 99* % | 0* % | 17* % | 97* % | 0* % | 0* % | 0* % | –
4 | O=c1c(-n2cccn2)nc(Cl)c(-c2c(F)cc(F)cc2F)n1-c1cc(Cl)cc(Cl)c1 [compound 404] | – | – | – | – | 97* % | 98* % | 100* % | 0* % | 9* % | 0* % | 0* % | 0* % | 0* % | –
5 | CC(C)Cn1c(-c2c(F)cccc2F)c(I)nc(-c2ccccn2)c1=O [compound 401] | – | 0% | 0% | – | 32* % | – | – | – | – | – | 0* % | – | – | Test E disease control rating (Botrytis cinerea; [4]): 96%; Test H disease control rating (Septoria nodorum; [4]): 95%; Test L disease control rating [2, 4]: 98%; Test G disease control rating (Rhizoctonia oryzae; [4]): 85%; Test B disease control rating [3, 4]: 0%
6 | Cc1ccn(-c2nc(Cl)c(-c3c(F)cc(F)cc3F)n(-c3ccc(F)cc3)c2=O)n1 [compound 409] | – | – | – | – | 99* % | 99* % | 99* % | 60* % | 24* % | 98* % | 0* % | 0* % | 0* % | –
7 | O=c1c(-n2cccn2)nc(Cl)c(-c2c(F)cc(F)cc2F)n1-c1ccc(F)c(Cl)c1 [compound 406] | – | – | – | – | 100* % | 99* % | 99* % | 0* % | 50* % | 84* % | 0* % | 0* % | 0* % | –
8 | CC(C)Cn1c(-c2c(F)cccc2F)c(Cl)nc(N2CCC=N2)c1=O [compound 4] | – | – | – | – | – | – | – | – | – | – | – | – | – | Test D disease control rating (Plasmopara viticola; 200 ppm): 12%; Test F disease control rating (Phytophthora infestans; 200 ppm): 0%; Test I disease control rating (fusarium graminearium; 200 ppm): 0%; Test K disease control rating ([1]; 200 ppm): 98%; Test E disease control rating (Botrytis cinerea; 200 ppm): 96%; Test H disease control rating (Septoria nodorum; 200 ppm): 99%; Test L disease control rating ([2]; 200 ppm): 96%; Test A disease control rating (Pythium aphanidermatum): 0%; Test G disease control rating (Rhizoctonia oryzae; 200 ppm): 99%; Test B disease control rating ([3]; 200 ppm): 0%
9 | Cc1ccn(-c2nc(Cl)c(-c3c(F)cc(F)cc3F)n(-c3cc(F)c(F)c(F)c3)c2=O)n1 [compound 411] | – | – | – | – | 98* % | 99* % | 99* % | 87* % | 16* % | 98* % | 0* % | 0* % | 0* % | –
10 | NC(=O)c1nc(Cl)c(-c2c(F)ccc(F)c2F)n(-c2ccccc2)c1=O [compound 419] | 32% | 95% | 73% | 100% | – | 97* % | 94* % | 0* % | 0* % | – | – | – | – | Test K disease control rating [1, 6]: 100* %
11 | CCC(C)c1c(Cl)nc(-n2ccc(C)n2)c(=O)n1CC(C)C (centres unmarked) [compound 390] | 8% | 0% | 0% | 0% | – | – | – | – | – | – | – | – | – | Test K disease control rating [1, 4]: 100%; Test E disease control rating (Botrytis cinerea; [4]): 98%; Test H disease control rating (Septoria nodorum; [4]): 0%; Test L disease control rating [2, 4]: 100%; Test G disease control rating (Rhizoctonia oryzae; [4]): 99%; Test B disease control rating [3, 4]: 0%
12 | CC(C)=Nn1c(-c2c(F)cccc2F)c(Cl)nc(-n2cccn2)c1=O [Compound 392, 5-Chloro-6-(2,6-difluorophenyl)-1-[(1-methylethylidene)amino]-3-(1H-pyrazol-1-yl)-2(1H)-pyrazinone] | – | – | – | – | – | – | – | – | – | – | – | – | – | pest or weed control at 200 ppm (Plasmopara viticola; Plasmopara viticola, 168 h, 200 ppm, 100 = 100% disease control, 0 = no control relative to controls, read-out: Test D disease control rating): 0%; pest or weed control at 200 ppm (Phytophthora infestans; Phytophthora infestans, in Solanum lycopersicum, topical, 144 h, read-out: Test F disease control rating): 0%; pest or weed control at 200 ppm (fusarium graminearium; Fusarium, in Triticum aestivum, topical, 192 h, read-out: Test I disease control rating, 200 ppm, 100 = 100% disease control, 0 = no control relative to controls): 0%; pest or weed control at 200 ppm ([1]; Puccinia recondita, in Triticum aestivum, 192 h, read-out: Test K disease control rating): 99%; pest or weed control at 200 ppm (Botrytis cinerea; Botrytis cinerea, in Solanum lycopersicum, topical, 72 h, read-out: Test E disease control rating): 99%; pest or weed control at 200 ppm (Septoria nodorum; Parastagonospora nodorum, in Triticum aestivum, topical, 168 h, read-out: Test H disease control rating, 200 ppm, 100 = 100% disease control, 0 = no control relative to controls): 78%; pest or weed control at 200 ppm ([2]; Blumeria graminis, in Triticum aestivum, 168 h, read-out: Test L disease control rating, 200 ppm, 100 = 100% disease control, 0 = no control relative to controls): 59%; pest or weed control at 200 ppm (Pythium aphanidermatum; Pythium aphanidermatum, 120 h, read-out: Test A disease control rating): 0%; pest or weed control at 200 ppm (Rhizoctonia oryzae; Waitea circinata, in Agrostis stolonifera, topical, 144 h, read-out: Test G disease control rating, 200 ppm, 100 = 100% disease control, 0 = no control relative to controls): 69%; pest or weed control at 200 ppm ([3]; Colletotrichum orbiculare, in Cucumis sativus, 144 h, read-out: Test B disease control rating, 200 ppm, 100 = 100% disease control, 0 = no control relative to controls): 0%
13 | CCC(C)Cn1c(-c2ccc(OC)cc2F)c(Cl)nc(-n2cccn2)c1=O (centres unmarked) [compound 421] | 3% | 0% | 0% | 0% | – | – | – | – | – | – | – | – | – | Test K disease control rating [1, 4]: 100%; Test E disease control rating (Botrytis cinerea; [4]): 99%; Test H disease control rating (Septoria nodorum; [4]): 100%; Test L disease control rating [2, 4]: 94%; Test G disease control rating (Rhizoctonia oryzae; [4]): 34%; Test B disease control rating [3, 4]: 99%
14 | NC(=O)c1nc(Cl)c(-c2c(F)cc(F)cc2F)n(-c2ccccc2)c1=O [compound 420] | 31% | 100% | 60% | 98% | – | 94* % | 96* % | 41* % | 0* % | – | – | – | – | Test K disease control rating [1, 6]: 100* %

Source: patent publication US20080194585A1, “Fungicidal Pyrazine Derivatives” (priority 2005, published 2008)
